Measured values reported in patent US20040116535A1, “Use” (priority 2001, published 2004).
Entries after “also recorded” stand apart in the source; their conditions may differ. Like-named read-outs stand apart in the source and are kept apart here.

Legend:
tinnitus [1] = settings: no statistically significant difference to placebo (35%); cited from earlier work
allodynia = assay: Different allodynia model, i.v. injected mex enantiomers (Nordmark and Schött, unpublished observations); assay type: in vivo; settings: 25 mg/kg i.v.
[2] = cited from earlier work
tinnitus [3] = settings: 32 patients; 200 mg 3 times daily for 30 days; cited from earlier work
GABA = settings: cited from earlier work
tinnitus [4] = settings: 300 mg mex per day orally for one or two weeks; cited from earlier work
tinnitus [5] = system: tinnitus
inferior colliculus = settings: activity believed to be representative of tinnitus; cited from earlier work
[6] = system: allodynia from rat nerve root ligation; settings: cited from earlier work
tinnitus [7] = settings: tocainide infusion; placebo infusion 5%; cited from earlier work
tinnitus [8] = settings: difference to placebo (30%) not significant; cited from earlier work

NC(=O)N1c2ccccc2C=Cc2ccccc21 [carbamazepine]
positive results for the drug (tinnitus [1]): 45%

Cc1cccc(C)c1OC[C@H](C)N [(S+)-mex]
side effects (allodynia): so severe that pain measurements were not possible

1-(2,6-dimethylphenoxy)-propanamine [mexiletine]
difference between peak and trough ([2]; after administration every 8 hours): more than 30%
half-life ([2]; human, in vivo): about 8 hours
effect on tinnitus compared with placebo (tinnitus [3]): not superior to placebo
effect on GABA (GABA): stimulating effect
patients showing no effect (tinnitus [4]): 65%
subjects showing an effect above 50% (tinnitus [4]): 14.6%
tinnitus intensity reduction (VAS) (tinnitus [5]; Case 1, 500 mg mexiletine infused over 120 min, after 118 min): 95%
time after which tinnitus returned to normal (tinnitus [5]; Case 2, 500 mg mexiletine): 1 h
level to which tinnitus was reduced (tinnitus [5]; Case 2, 500 mg mexiletine, shortly before the infusion stopped): 60%
time after which tinnitus returned to base level (tinnitus [5]; Case 2, 550 mg mexiletine over 90 min): 100 min
tinnitus (VAS) (tinnitus [5]; Case 2, 550 mg mexiletine over 90 min, after 60 min): completely vanished
increase in tinnitus intensity (tinnitus [5]; Case 2, 550 mg mexiletine over 90 min, after 214 min): about 40%
reduction in tinnitus intensity (tinnitus [5]; Case 3, mexiletine): small reductions; also recorded: moderate
side effects (tinnitus [5]; human, in vivo): no side effects

CCN(CC)CC(=O)Nc1c(C)cccc1C [lidocaine]
increased spontaneous activity in the inferior colliculus (inferior colliculus): abolished
effect on GABA (GABA): stimulating effect
side effects (tinnitus [5]; Case 1, 100 mg lidocaine i.v.): no side effects
tinnitus intensity reduction (VAS) (tinnitus [5]; Case 1, 100 mg lidocaine i.v. over 5 min, 70 min after the start): 96%
time after which tinnitus returned to the initial level (tinnitus [5]; Case 2, lidocaine i.v.): about 2 min
tinnitus (VAS) (tinnitus [5]; Case 2, lidocaine i.v., 30 s after injection): no tinnitus
tinnitus increase above the base level (tinnitus [5]; Case 2, lidocaine i.v., at 30 min): 46%
tinnitus (VAS) (tinnitus [5]; Case 2, lidocaine i.v., less than one min after the start of the injection): vanished completely
reduction in tinnitus intensity (tinnitus [5]; Case 3, lidocaine): small reductions; also recorded: moderate
side effects (tinnitus [5]; Case 3, lidocaine): no side effects

Cc1cccc(C)c1OC[C@@H](C)N [(R−)-mex]
pain relief (allodynia) compared between the mex enantiomers [6]: considerably greater

Cc1cccc(C)c1NC(=O)C(C)N (stereo not drawn) [tocainide]
effect on GABA (GABA): stimulating effect
reduction in tinnitus intensity (tinnitus [7]): 50%

CNCCC=C1c2ccccc2CCc2ccccc21 [nortriptyline]
reduction of tinnitus sensation (tinnitus [8]): 43%
